{"source": "patent US20260285903A1", "about": "“SYNTHESIZED BIOLOGICALLY ACTIVE COMPOUNDS AND METHODS OF MAKING AND USING” (Georgia State University Research Foundation, Inc., priority 2023, published 2026)", "key": {"[1]": {"assay": "Incubation with mouse intestinal microsomes (HPLC)", "assay_type": "in vitro ADME", "details": "incubation for 30 minutes", "text": "The biopharmaceutical properties of the synthesized M13 (5-glutathione-6-shogaol) were characterized."}, "NF-κB signaling pathway": {"tested_on": "NF-κB signaling pathway", "assay": "NF-κB-dependent luciferase activity in NF-κB/293/GFP-Luc cells treated with TNF-α", "assay_type": "cell-based", "details": "for RLU (% with TNFα): MLY compounds; for RLU (% with TNFα) / reduction of NF-κB activation: TNF-α 10 ng/ml, 18 hours; for Activity compared with M13: Table 2B; for reduction of NF-κB activation / RLU (% with TNF-α), range: 20 µM; for pIC50: TNF-α stimulated, FIG. 9, read-out: dose to reduce the NF-κB activation by 50%; for RLU (% with TNF-α), range: Table 2B bins, 1080 min", "description": "First, the anti-inflammatory activity of MLY compounds on the NF-κB signaling pathway was examined using the NF-xB/293/GFP-LucTnl cell line (System Biosciences). This cell line is specifically designed for use in quantitatively monitoring (by luciferase intensity) transcriptional activation related to the NF-κB signal transduction pathway in vitro. Treatment of NF-κB/293/GFP-Luc™ cells with 10 ng/ml TNF-α for 18 hours induced strong activation of the NF-κB signal transduction pathway (FIGS. 8A and 8B). […] MLY2 and MLY8 induced a strongest 90% reduction of NF-κB activation the anti-inflammatory effect of MLY 2 and 8 was dose-related (FIG. 9). The dose to reduce the NF-κB activation by 50% was […] for M13, 5 μM for MLY2 and 11 μM for MLY8 (FIG. 9)."}}, "note": "pIC50: −log10 of the molar value."}
{"smiles": "CCCCC/C=C/C(=O)CCc1ccc(O)c(OC)c1", "note": "[6-shogaol, reference compound]", "values": [{"measurement": "relative content retained of the input", "setting": "[1]", "result": 61, "unit": "%"}]}
{"smiles": "CCCCCC(CC(=O)CCc1ccc(O)c(OC)c1)SC[C@H](NC(=O)[C@@H](N)CCC(=O)O)C(=O)N[C@@H](C)C(=O)O", "note": "(stereo partly drawn) [MLY-1, Glu(alpha)-Cys(6-shogaol)-Ala]", "values": [{"measurement": "RLU (% with TNFα)", "setting": "NF-κB signaling pathway", "result": "30.3 ± 11.78", "unit": "%"}, {"measurement": "Activity compared with M13", "setting": "NF-κB signaling pathway", "result": ">>M13 (15~35%)"}]}
{"smiles": "CCCCCC(CC(=O)CCc1ccc(O)c(OC)c1)SC[C@H](NC(=O)[C@@H](N)CCC(=O)O)C(=O)N[C@@H](CC(C)C)C(=O)O", "note": "(stereo partly drawn) [MLY-2, Glu(alpha)-Cys(6-shogaol)-Leu]", "values": [{"measurement": "RLU (% with TNFα)", "setting": "NF-κB signaling pathway", "result": "0.78 ± 0.54", "unit": "%"}, {"measurement": "reduction of NF-κB activation", "setting": "NF-κB signaling pathway", "result": 90, "unit": "%"}, {"measurement": "pIC50", "setting": "NF-κB signaling pathway", "result": 5.30}, {"measurement": "Activity compared with M13", "setting": "NF-κB signaling pathway", "result": ">>>>M13 (0~5%)"}]}
{"smiles": "CCCCCC(CC(=O)CCc1ccc(O)c(OC)c1)SC[C@H](NC(=O)[C@@H](N)CCC(=O)O)C(=O)N1CCC[C@H]1C(=O)O", "note": "(stereo partly drawn) [MLY-3, Glu(alpha)-Cys(6-shogaol)-Pro]", "values": [{"measurement": "RLU (% with TNFα)", "setting": "NF-κB signaling pathway", "result": "6.54 ± 8.56", "unit": "%"}, {"measurement": "Activity compared with M13", "setting": "NF-κB signaling pathway", "result": ">M13 (35%~70%)"}]}
{"smiles": "CCCCCC(CC(=O)CCc1ccc(O)c(OC)c1)SC[C@H](NC(=O)[C@@H](N)CCC(=O)O)C(=O)N[C@@H](Cc1c[nH]c2ccccc12)C(=O)O", "note": "(stereo partly drawn) [MLY-4, Glu(alpha)-Cys(6-shogaol)-Trp]", "values": [{"measurement": "RLU (% with TNFα)", "setting": "NF-κB signaling pathway", "result": "80.65 ± 2.22", "unit": "%"}, {"measurement": "Activity compared with M13", "setting": "NF-κB signaling pathway", "result": "= M13 (70%~85%)"}]}
{"smiles": "CCCCCC(CC(=O)CCc1ccc(O)c(OC)c1)SC[C@H](NC(=O)[C@@H](N)CCC(=O)O)C(=O)N[C@@H](Cc1ccc(O)cc1)C(=O)O", "note": "(stereo partly drawn) [MLY-5, Glu(alpha)-Cys(6-shogaol)-Tyr]", "values": [{"measurement": "RLU (% with TNFα)", "setting": "NF-κB signaling pathway", "result": "67.18 ± 3.27", "unit": "%"}, {"measurement": "Activity compared with M13", "setting": "NF-κB signaling pathway", "result": ">M13 (35%~70%)"}]}
{"smiles": "CCCCCC(CC(=O)CCc1ccc(O)c(OC)c1)SC[C@H](NC(=O)[C@@H](N)CC(=O)O)C(=O)N[C@@H](Cc1ccccc1)C(=O)O", "note": "(stereo partly drawn) [MLY-6, Asp(alpha)-Cys(6-shogaol)-Phe]", "values": [{"measurement": "RLU (% with TNFα)", "setting": "NF-κB signaling pathway", "result": "50.7 ± 1.38", "unit": "%"}, {"measurement": "Activity compared with M13", "setting": "NF-κB signaling pathway", "result": ">M13 (35%~70%)"}]}
{"smiles": "CCCCCC(CC(=O)CCc1ccc(O)c(OC)c1)SC[C@H](NC(=O)[C@@H](N)CC(=O)O)C(=O)N[C@@H](CC(C)C)C(=O)O", "note": "(stereo partly drawn) [MLY-7, Asp(alpha)-Cys(6-shogaol)-Leu]", "values": [{"measurement": "RLU (% with TNFα)", "setting": "NF-κB signaling pathway", "result": "38.6 ± 3.96", "unit": "%"}, {"measurement": "Activity compared with M13", "setting": "NF-κB signaling pathway", "result": ">M13 (35%~70%)"}]}
{"smiles": "CCCCCC(CC(=O)CCc1ccc(O)c(OC)c1)SC[C@H](NC(=O)[C@@H](N)CC(=O)O)C(=O)N[C@@H](CCSC)C(=O)O", "note": "(stereo partly drawn) [MLY-8, Asp(alpha)-Cys(6-shogaol)-Met]", "values": [{"measurement": "RLU (% with TNFα)", "setting": "NF-κB signaling pathway", "result": "8.04 ± 4.06", "unit": "%"}, {"measurement": "reduction of NF-κB activation", "setting": "NF-κB signaling pathway", "result": 90, "unit": "%"}, {"measurement": "pIC50", "setting": "NF-κB signaling pathway", "result": 4.96}, {"measurement": "Activity compared with M13", "setting": "NF-κB signaling pathway", "result": ">>>M13 (5%~15%)"}]}
{"smiles": "CCCCCC(CC(=O)CCc1ccc(O)c(OC)c1)SC[C@H](NC(=O)[C@@H](N)CC(=O)O)C(=O)N1CCC[C@H]1C(=O)O", "note": "(stereo partly drawn) [MLY-9, Asp(alpha)-Cys(6-shogaol)-Pro]", "values": [{"measurement": "RLU (% with TNFα)", "setting": "NF-κB signaling pathway", "result": "92.85 ± 2.15", "unit": "%"}, {"measurement": "Activity compared with M13", "setting": "NF-κB signaling pathway", "result": "<M13 (>90%)"}, {"measurement": "RLU (% with TNF-α), range", "setting": "NF-κB signaling pathway", "result": ">90", "unit": "%"}]}
{"smiles": "CCCCCC(CC(=O)CCc1ccc(O)c(OC)c1)SC[C@H](NC(=O)[C@@H](N)CC(=O)O)C(=O)N[C@H](C(=O)O)C(C)C", "note": "(stereo partly drawn) [MLY-10, Asp(alpha)-Cys(6-shogaol)-Val]", "values": [{"measurement": "RLU (% with TNFα)", "setting": "NF-κB signaling pathway", "result": "66.68 ± 11.06", "unit": "%"}, {"measurement": "Activity compared with M13", "setting": "NF-κB signaling pathway", "result": ">M13 (35%~70%)"}]}
{"smiles": "CCCCCC(CC(=O)CCc1ccc(O)c(OC)c1)SC[C@H](NC(=O)[C@@H](N)CC(=O)O)C(=O)N[C@@H](Cc1c[nH]c2ccccc12)C(=O)O", "note": "(stereo partly drawn) [MLY-11, Asp(alpha)-Cys(6-shogaol)-Trp]", "values": [{"measurement": "RLU (% with TNFα)", "setting": "NF-κB signaling pathway", "result": "24.75 ± 0.79", "unit": "%"}, {"measurement": "Activity compared with M13", "setting": "NF-κB signaling pathway", "result": ">>M13 (15~35%)"}]}
{"smiles": "CCCCCC(CC(=O)CCc1ccc(O)c(OC)c1)SC[C@H](NC(=O)[C@@H](N)CC(=O)O)C(=O)N[C@@H](Cc1ccc(O)cc1)C(=O)O", "note": "(stereo partly drawn) [MLY-12, Asp(alpha)-Cys(6-shogaol)-Tyr]", "values": [{"measurement": "RLU (% with TNFα)", "setting": "NF-κB signaling pathway", "result": "47.43 ± 5.5", "unit": "%"}, {"measurement": "Activity compared with M13", "setting": "NF-κB signaling pathway", "result": ">M13 (35%~70%)"}]}
{"smiles": "CCCCCC(CC(=O)CCc1ccc(O)c(OC)c1)SC[C@H](NC(=O)[C@@H](N)CCC(=O)O)C(=O)N[C@@H](CCSC)C(=O)O", "note": "(stereo partly drawn) [MLY-13, Glu(alpha)-Cys(6-shogaol)-Met]", "values": [{"measurement": "RLU (% with TNFα)", "setting": "NF-κB signaling pathway", "result": "60.22 ± 13.55", "unit": "%"}, {"measurement": "Activity compared with M13", "setting": "NF-κB signaling pathway", "result": ">M13 (35%~70%)"}]}
{"smiles": "CCCCCC(CC(=O)CCc1ccc(O)c(OC)c1)SC[C@H](NC(=O)[C@@H](N)CC(=O)O)C(=O)N[C@H](C(=O)O)[C@@H](C)CC", "note": "(stereo partly drawn) [MLY-14, Asp(alpha)-Cys(6-shogaol)-Ile]", "values": [{"measurement": "RLU (% with TNFα)", "setting": "NF-κB signaling pathway", "result": "80.67 ± 11.28", "unit": "%"}, {"measurement": "Activity compared with M13", "setting": "NF-κB signaling pathway", "result": "= M13 (70%~85%)"}]}
{"smiles": "CCCCCC(CC(=O)CCc1ccc(O)c(OC)c1)SC[C@H](NC(=O)[C@@H](N)CCC(=O)O)C(=O)N[C@@H](Cc1ccccc1)C(=O)O", "note": "(stereo partly drawn) [MLY-15, Glu(alpha)-Cys(6-shogaol)-Phe]", "values": [{"measurement": "RLU (% with TNFα)", "setting": "NF-κB signaling pathway", "result": "47.98 ± 9.35", "unit": "%"}, {"measurement": "Activity compared with M13", "setting": "NF-κB signaling pathway", "result": ">M13 (35%~70%)"}]}
{"smiles": "CCCCCC(CC(=O)CCc1ccc(O)c(OC)c1)SC[C@H](NC(=O)[C@@H](N)CCC(=O)O)C(=O)N[C@H](C(=O)O)[C@@H](C)CC", "note": "(stereo partly drawn) [MLY-16, Glu(alpha)-Cys(6-shogaol)-Ile]", "values": [{"measurement": "RLU (% with TNFα)", "setting": "NF-κB signaling pathway", "result": "68.19 ± 4.46", "unit": "%"}, {"measurement": "Activity compared with M13", "setting": "NF-κB signaling pathway", "result": ">M13 (35%~70%)"}]}
{"smiles": "CCCCCC(CC(=O)CCc1ccc(O)c(OC)c1)SC[C@H](NC(=O)[C@@H](N)CCC(=O)O)C(=O)N[C@H](C(=O)O)C(C)C", "note": "(stereo partly drawn) [MLY-17, Glu(alpha)-Cys(6-shogaol)-Val]", "values": [{"measurement": "RLU (% with TNFα)", "setting": "NF-κB signaling pathway", "result": "45.13 ±1.96", "unit": "%"}, {"measurement": "Activity compared with M13", "setting": "NF-κB signaling pathway", "result": ">M13 (35%~70%)"}]}
{"smiles": "CCCCCC(CC(=O)CCc1ccc(O)c(OC)c1)SC[C@H](NC(=O)[C@@H](N)CC(=O)O)C(=O)NCC(=O)O", "note": "(stereo partly drawn) [MLY-18, Asp(alpha)-Cys(6-shogaol)-Gly]", "values": [{"measurement": "RLU (% with TNFα)", "setting": "NF-κB signaling pathway", "result": "112.31 ± 7.28", "unit": "%"}, {"measurement": "Activity compared with M13", "setting": "NF-κB signaling pathway", "result": "<M13 (>90%)"}, {"measurement": "RLU (% with TNF-α), range", "setting": "NF-κB signaling pathway", "result": ">90", "unit": "%"}]}
{"smiles": "CCCCCC(CC(=O)CCc1ccc(O)c(OC)c1)SC[C@H](NC(=O)[C@@H](N)CC(=O)O)C(=O)N[C@@H](C)C(=O)O", "note": "(stereo partly drawn) [MLY-19, Asp(alpha)-Cys(6-shogaol)-Ala]", "values": [{"measurement": "RLU (% with TNFα)", "setting": "NF-κB signaling pathway", "result": "67.04 ± 11.04", "unit": "%"}, {"measurement": "Activity compared with M13", "setting": "NF-κB signaling pathway", "result": ">M13 (35%~70%)"}]}
